Legend:
Assay type in all cases: cell-based
Rhizopus sp. = test: In vitro mycelial/spore growth on potato-sucrose-agar, percent disease control (RS, second column); conditions: read-out: % controlled, RS; for inhibition of growth at 50 ppm: Rhizopus sp.; for inhibition of growth at 200 ppm: Rhizopus
Method: (§1) The compounds of this invention were dissolved respectively in acetone in an amount equal to 10% of the final volume and then in purified water at the concentration of 100 ppm and 50 ppm.
(§2) Each of the solution was mixed with potato-sucrose-agar medium in 6" petri dish and one of the fungi was spotted at the center of the dish. The dish was incubated in growth room for several days. The percent disease control was derived from the radii of spore growth. The screening tests in vitro condition are well-known to those skilled in the art.
(§3) The following fungi were used for the screening.
9) Rhi. sp.; Rhizopus sp.

Phytophthora capsisi = test: In vitro mycelial/spore growth on potato-sucrose-agar, percent disease control (PC); conditions: read-out: % controlled, PC
Method: as §1, §2, §3
2) Phy. ca.; Phytophthora capsisi

Rhizoctonia solani = test: In vitro mycelial/spore growth on potato-sucrose-agar, percent disease control (RS, first column); conditions: read-out: % controlled, RS
Method: as §1, §2, §3
7) Rhi. so.; Rhizoctonia solani

Pyricalaria oryzae = test: In vitro mycelial/spore growth on potato-sucrose-agar, percent disease control (PO); conditions: read-out: % controlled, PO
Method: as §1, §2, §3
6) Py. or.; Pyricalaria oryzae

Botryosphaeri = test: In vitro mycelial/spore growth on potato-sucrose-agar, percent disease control (BD); conditions: read-out: % controlled, BD
Method: as §1, §2, §3
4) Bo. do (Ma); Botryosphaeri

GC = test: In vitro mycelial/spore growth on potato-sucrose-agar, percent disease control (GC); conditions: read-out: % controlled, GC; for inhibition of growth at 50 ppm: GC
Method: as §1, §2, §3

Botritis cinerea = test: In vitro mycelial/spore growth on potato-sucrose-agar, percent disease control (BC); conditions: read-out: % controlled, BC
Method: as §1, §2, §3
10) Bo. ci.; Botritis cinerea

Fusarium moniliforme = test: In vitro mycelial/spore growth on potato-sucrose-agar, percent disease control (FM); conditions: Fusarium verticillioides, Fusarium moniliforme, read-out: % controlled, FM
Method: as §1, §2, §3
8) Fu. mo.; Fusarium moniliforme

Structure (SMILES) | inhibition of growth at 50 ppm (Rhizopus sp.) [%] | inhibition of growth at 200 ppm (Rhizopus sp.) [%] | inhibition of growth at 50 ppm (Phytophthora capsisi) [%] | inhibition of growth at 200 ppm (Phytophthora capsisi) [%] | inhibition of growth at 50 ppm (Rhizoctonia solani) [%] | inhibition of growth at 200 ppm (Rhizoctonia solani) [%] | inhibition of growth at 50 ppm (Pyricalaria oryzae) [%] | inhibition of growth at 200 ppm (Pyricalaria oryzae) [%] | inhibition of growth at 50 ppm (Botryosphaeri) [%] | inhibition of growth at 200 ppm (Botryosphaeri) [%] | inhibition of growth at 50 ppm (GC) [%] | inhibition of growth at 200 ppm (GC) [%] | inhibition of growth at 50 ppm (Botritis cinerea) [%] | inhibition of growth at 200 ppm (Botritis cinerea) [%] | inhibition of growth at 50 ppm (Fusarium moniliforme) [%] | inhibition of growth at 200 ppm (Fusarium moniliforme) [%]
CC(n1cncn1)[Si]1(c2ccc(-c3ccccc3)cc2)CCCCC1 (stereo not drawn) [1-(4-biphenyl)-1-[α-(1H-1,2,4-triazole-1-yl)ethyl]-1-silacyclohexane] | 79 | 89 | 92 | 100 | 100 | 100 | 100 | 100 | 100 | 100 | 100 | 100 | 100 | 100 | 100 | 100
CC(n1cncn1)[Si]1(c2ccc(-c3ccccc3)cc2)CCCC1 (stereo not drawn) [1-(4-biphenyl)-1-[α-(1H-1,2,4-triazole-1-yl)ethyl]-1-silacyclopentane] | 86 | 90 | 80 | 100 | 100 | 100 | 100 | 100 | 100 | 100 | 100 | 100 | 100 | 100 | 97 | 100
Clc1ccc([Si]2(Cn3cncn3)CCCCC2)cc1 [1-(4-chlorophenyl)-1-(1H-1,2,4-triazole-1-yl)methyl-1-silacyclohexane] | 50 | 92 | 90 | 100 | 57 | 69 | 100 | 100 | 100 | 100 | 100 | 100 | 100 | 100 | 100 | 100
Clc1ccc([Si]2(Cn3cncn3)CCCC2)cc1 [1-(4-chlorophenyl)-1-(1H-1,2,4-triazole-1-yl)methyl-1-silacyclopentane] | 67 | 75 | 15 | 98 | 95 | 100 | 100 | 100 | 70 | 99 | 100 | 100 | 100 | 100 | 100 | 100
CC(n1cncn1)[Si]1(c2ccc(Cl)cc2)CCCCC1 (stereo not drawn) [1-(4-chlorophenyl)-1-[α-(1H-1,2,4-triazole-1-yl)ethyl]-1-silacyclohexane] | 77 | 90 | 75 | 100 | 100 | 100 | 100 | 100 | 100 | 100 | 100 | 100 | 100 | 100 | 100 | 100

Source: patent US5455356A, “Fungicidal 1-aryl-1-[α-(triazolyl)alkyl]-1-silacycloalkanes and their preparation methods” (priority 1993, dated 1995)
